Test [1] concerns mechanical allodynia induced in mice by intraplantar capsaicin injection. Nature of the test: Mechanical allodynia induced by intraplantar capsaicin injection (von Frey, latency to paw withdrawal). Format: in vivo. An excerpt:
Thus, in Example 1, an experimental trial is described performed on mice with mechanical allodynia induced by intraplantar capsaicin injection, according to the model described in the article by Entrena et al., Antagonism by haloperidol and its metabolites of mechanical hypersensitivity induced by intraplantar capsaicin in mice: role of sigma-1 receptors, Psychopharmacology, 2009, 205, 21-33. This trial is based on hypersensitivity induced in the mice by means of injecting capsaicin in the right hind paw. The allodynia is quantified by measuring the decrease in latency time in the hypersensitized mice until paw withdrawal, when a mechanical stimulus is applied to it.
For this trial, 6 groups of mice were used with between 8 and 12 animals in each group. […] 15 minutes after the injection, different mechanical stimuli were applied with a von Frey filament with a force of 0.5 g in an esthesiometer, and the values of the latency time until paw withdrawal were recorded. […]
In order to quantify the anti-allodynic effect, a value of 100% allodynia was assigned to the latency time of the animals injected with capsaicin and without pharmacological treatment (only treated with the vehicle). […]

In test [2] the test system is allodynia induced in mice by injecting paclitaxel. Briefly: Neuropathic pain induced by chemotherapy (paclitaxel): prevention by coadministration with paclitaxel. Format: in vivo. The conditions noted are these: 30 mg/Kg orally daily for 5 consecutive days coadministered with paclitaxel, evaluated on the 10th day. How it is done:
In Example 3 an experimental model is used in mice based on inducing allodynia by intraperitoneal injection of paclitaxel, as described in the articles by Smith et al., Paclitaxel-induced neuropathic hypersensitivity in mice: responses in 10 inbred mouse strains, Life Sci., 2014, 2593-2604 and Palomano et al., Chemotherapy-evoked painful peripheral neuropathy, Pain Med., 2001, 2 (1), 8-14. In alternative trials, compound Ic was administered after allodynia induction by paclitaxel, or it was administered jointly with this chemotherapy medication. […]
In this test, groups of mice between 7 and 12 animals were used, to which a daily dose of paclitaxel of 2 mg/Kg was administered by intraperitoneal route for 5 consecutive days (except for the control group). The evaluation of the induced mechanical allodynia was carried out on the 10th day after the first paclitaxel injection, and was quantified by using the von Frey filaments, according to the force threshold necessary to cause the paw withdrawal of the animal.
A second trial was carried out using this same model, according to which a daily dose of compound Ic was administered orally, for 5 consecutive days, coadministered with paclitaxel. The allodynia was evaluated the 10th day after the beginning of the treatment. […]

Experimental findings from patent publication US11046722B2, “Sulphated disaccharides for the treatment of neuropathic pain” (BIOIBERICA, S.A.U., priority 2017, dated 2021) are described below.

For the compound `CO[C@H]1O[C@H](COS(=O)(=O)[O-])[C@@H](OS(=O)(=O)[O-])[C@H](O[C@@H]2O[C@H](C(=O)[O-])[C@@H](O)[C@H](O)[C@H]2O)[C@H]1NC(C)=O.[Na+].[Na+].[Na+]` [Compound Ic, methyl 2-acetamido-2-desoxi-3-O-(β-D-glucopyranosyluronic acid)-4,6-di-O-sulfo-α-D-glucopyranoside trisodium salt], the anti-allodynic effect result in test [1] (capsaicin 1 μg intraplantar, 3, 10 and 30 mg/Kg by gavage 45 minutes before the trial, effect dose-dependent) was “notable anti-allodynic effect”. In test [1] (capsaicin, highest dose 30 mg/Kg by gavage 45 minutes before the trial, 100% = capsaicin + vehicle), the “reduction of the allodynia” value is on record as “more than 50%”. Also, the “prevention of the development of allodynia” value in test [2] was “prevented the development of allodynia”.
